Read-outs that look alike come from different tables or passages of the source.
Legend:
Pneumocystis carini = conditions: cited from earlier work
[1] = system: 108 recent clinical isolates of P. aeruginosa obtained from cystic fibrosis patients; test: Susceptibility of cystic fibrosis clinical isolates (broth-micro-dilution, NCCLS); format: cell-based, Pseudomonas aeruginosa; conditions: 108 CF isolates; pentamidine 20 μg/ml
[2] = system: P. aeruginosa PAM1723 (nalB, overexpressing MexAB-OprM); test: microbe, parasite or virus in culture; format: cell-based, Pseudomonas aeruginosa
Procedure: Stock solutions were further diluted, according to the needs of a particular assay, in Mueller Hinton Broth (MHB). Stock solution was stored at −80° C.
The checkerboard assay was performed in microtiter plates. […] The result of these manipulations is that each well of the microtiter plate contains a unique combination of concentrations of the two agents. The assay was performed in MHB with a final bacterial inoculum of 5×10^5 CFU/ml (from an early-log phase culture). Microtiter plates were incubated during 20 h at 35° C. and were read using a microtiterplate reader (Molecular Devices) at 650 nm as well as visual observation using a microtiter plate reading mirror.
The test organisms used was PAM1020, which is a wild type strain of P. aeruginosa expressing the basal level of MexAB-OprM, as well as PAM1723, PAM1738, and PAM1753, overexpressing the MexAB-OprM, MexCD-OprJ, and MexEF-OprN pump, respectively.
Efflux pump inhibitory activity of several commercially available diamidine analogs was evaluated using the checkerboard assay of Example 1 against the strain of P. aeruginosa overexpressing the MexAB-OprM efflux pump.

[3] = system: PAM1626 cells (lacking the efflux pump); test: Leu-Nap accumulation assay; conditions: Leu-Nap 100 μg/ml, pentamidine 0 to 80 μg/ml
Procedure: Leu-Nap, which is not fluorescent in solution, is cleaved enzymatically inside the cells to produce highly fluorescent β-naphthylamine. The more Leu-Nap enters cells, the more fluorescence is produced. The rate of production of β-naphthylamine (recorded as an increase in fluorescence) is limited by the rate of entry of Leu-Nap into the cell. To assess the uptake of Leu-Nap, cultures of P. aeruginosa were grown to OD600 ˜1, washed and re-suspended in buffer at pH 7.0 containing K2HPO4 50 mM, MgSO4 1 mM, and Glucose 0.4% (Buffer A). Assays were performed in 96-well flat bottom black plates (Applied Scientific or Costar) in a final volume of 200 μl and were initiated by addition of Leu-Nap to suspensions of intact cells to a final concentration of 100-20 μg/ml. Fluorescence was measured on a fMAX spectrofluorometer (Molecular Devices) using excitation of 320 nm and emission of 460 nm.

[4] = isethionate salt; cited from earlier work
PAM1723 cells = test: EtBr uptake (proton gradient disruption); format: cell-based, Pseudomonas aeruginosa; conditions: CCCP 50 μg/ml for 15 minutes, pentamidine 80 μg/ml
Procedure: A proton gradient is necessary for efflux pump activity. Accordingly, compounds that are capable of proton gradient disruption will appear as efflux inhibitors in accumulation assays. This possibility was tested for pentamidine. EtBr is a substrate of the MexAB-OprM efflux pump from P. aeruginosa as evident from the differential rates of its uptake in PAM 1723 and PAM 1626, MexAB-OprM overexpressing or lacking strains, respectively. CCCP is a well-known protonophore, which rapidly dissipates the proton gradient.

clinical = conditions: human, in vivo
[5] = system: P. aeruginosa PAM2302 (MexAB-OprM, MexCD-OprJ, MexEF-OprN); test: microbe, parasite or virus in culture; format: cell-based, Pseudomonas aeruginosa; conditions: PAM2302
Procedure: (§1) A set of strains that simultaneously over-expressed pairs or triplicates of pumps, e.g. PAM2302 and PAM2303 was tested. Simultaneous over-expression of efflux pumps has been recently detected in clinical strains.

[6] = system: P. aeruginosa PAM1438 (MexAB-OprM, MexCD-OprJ); test: microbe, parasite or virus in culture; format: cell-based, Pseudomonas aeruginosa; conditions: PAM1438
Procedure: as §1

[7] = for AUC (0-4)/AUC (0-168) / AUC (0-8)/AUC (0-168) / AUC (0-24)/AUC (0-168) / Ke (β): CF sputum, high dose, Mean; for Ke (β): β phase

SMILES: N=C(N)c1ccc(OCCCCCOc2ccc(C(=N)N)cc2)cc1 [Pentamidine, pentamidine]
- In vitro inhibitory activity (Pneumocystis carini): 0.3 µg/mL
- decrease of MIC50 of levofloxacin and ciprofloxacin [1]: 8 fold
- decrease of MIC90 of levofloxacin and ciprofloxacin [1]: 2 fold
- Levofloxacin MIC in the presence of inhibitor ([2]; PAM1723, inhibitor 1.25 μg/ml): 2 µg/mL
- Levofloxacin MIC in the presence of inhibitor ([2]; PAM1723, inhibitor 2.5 μg/ml): 1 µg/mL
- Levofloxacin MIC in the presence of inhibitor ([2]; PAM1723, inhibitor 5 μg/ml): 1 µg/mL
- Levofloxacin MIC in the presence of inhibitor ([2]; PAM1723, inhibitor 10 μg/ml): 0.5 µg/mL
- Levofloxacin MIC in the presence of inhibitor ([2]; PAM1723, inhibitor 10 μg/ml, listed as Pentamidine MP 601205): 1 µg/mL
- Levofloxacin MIC in the presence of inhibitor ([2]; PAM1723, inhibitor 20 μg/ml): 0.25 µg/mL
- Levofloxacin MIC in the presence of inhibitor ([2]; PAM1723, inhibitor 40 μg/ml): 0.06 µg/mL
- Levofloxacin MIC in the presence of inhibitor ([2]; PAM1723, inhibitor 80 μg/ml): 0.007 µg/mL
- MIC* (MIC for the efflux pump inhibitor) ([2]; PAM1723, inhibitor alone, listed as Pentamidine MP 601205): >81 µg/mL
- decrease of levofloxacin MIC ([2]; PAM1723, pentamidine at 20 μg/ml): 8 fold
- MIC ([2]; Pseudomonas aeruginosa, read-out: MIC* (MIC for the efflux pump inhibitor), PAM1723, inhibitor alone): > 80 µg/mL
- reduction of the levofloxacin MIC of PAM1723 (2 μg/ml) ([2]; inhibitor at 10 μg/ml to 20 μg/ml): at least 8 fold
- effect on Leu-Nap uptake [3]: No such increase
- solubility [4]: soluble in water and glycerin and insoluble in ether, acetone, and chloroform
- EtBr uptake (PAM1723 cells): did not result in increased EtBr uptake
- concentration at 7 day (clinical): ≤ 110 ng/mL
- half-life (clinical; 70 mg/4 ml, T1/2 (a), CF sputum, Aerogen Clinical, high dose, a phase 0-8 hours, Mean): 2.2 h
- half-life (clinical; 70 mg/4 ml, T1/2 (β), CF sputum, Aerogen Clinical, high dose, β phase, Mean): 24.4 h
- half-life (clinical; 300 mg/6 ml, T1/2 (a), CF sputum, Respirgard II, high dose, a phase 0-8 hours, Mean): 2.6 h
- half-life (clinical; 300 mg/6 ml, T1/2 (β), CF sputum, Respirgard II, high dose, β phase, Mean): 26.7 h
- AUC(0-t) (clinical; AUC (0 to 168)): 84000 ng·h/mL
- AUC(0-inf) (clinical; AUC (0 to infinity)): 84000 ng·h/mL
- AUC(0-t) (clinical; AUC (0 to last non-BLQ)): 83000 ng·h/mL
- Tmax (clinical; Tmax (0 to 168)): 1.8 h
- half-life (clinical; α phase half-life for elimination from sputum): 2.2 to 2.6 h
- Ciprofloxacin MIC w/pentamidine at 20 μg/ml [5]: 0.25 µg/mL
- Levofloxacin MIC w/pentamidine at 20 μg/ml [5]: 0.25 µg/mL
- Ciprofloxacin MIC w/pentamidine at 20 μg/ml [6]: 0.25 µg/mL
- Levofloxacin MIC w/pentamidine at 20 μg/ml [6]: 0.25 µg/mL
- AUC (0-4)/AUC (0-168) ([7]; Aerogen Clinical): 46%
- AUC (0-8)/AUC (0-168) ([7]; Aerogen Clinical): 61%
- AUC (0-24)/AUC (0-168) ([7]; Aerogen Clinical): 77%
- Ke (β) ([7]; Aerogen Clinical): 0.070 h⁻¹
- AUC (0-4)/AUC (0-168) ([7]; Respirgard II): 30%
- AUC (0-8)/AUC (0-168) ([7]; Respirgard II): 41%
- AUC (0-24)/AUC (0-168) ([7]; Respirgard II): 66%
- Ke (β) ([7]; Respirgard II): 0.074 h⁻¹
- AUC (0 to 168) ([7]; human, in vivo): 57000 ng·h/mL
- AUC (0 to infinity) ([7]; human, in vivo): 57000 ng·h/mL
- AUC (0 to last non-BLQ) ([7]; human, in vivo): 56000 ng·h/mL
- Tmax (0 to 168) ([7]; human, in vivo): 2.3 h
- high-dose β-phase elimination half-life (sputum) ([7]; human, in vivo): between one and two days

— patent US7947741B2, “Use and administration of bacterial efflux pump inhibitors” (Mpex Pharmaceuticals, Inc., priority 2004, dated 2011)
